Assay results published in US20230016424A1, “HYBRID AMIDE DERIVATIVES OF AMPHOTERICIN B” (The Board of Trustees of the University of Illinois, priority 2019, published 2023).
In brackets after ≈: the same amount, converted by molar mass.

Legend:
human erythrocytes = assay: MHC hemolysis assay; type: cell-based; conditions: hemolysis, human erythrocytes, 37° C. 2 hours
Experimental: MHC (FIG. 21B): The protocol for the hemolysis assay was adapted from the report of Paquet and coworkers (Chem. Eur. J. 2008, 14, 2465-2481). Whole human blood (sodium heparin) was purchased from Bioreclamation LLC (Westbury, N.Y.) and stored at 4° C. and used within two days of receipt. To a 2.0 mL eppendorf tube, 1 mL of whole human blood was added and centrifuged at 10,000 g for 2 minutes. The supernatant was removed and the erythrocyte pellet was washed with 1 mL of sterile saline and centrifuged at 10,000 g for 2 minutes. The saline wash was repeated for a total of three washes. The erythrocyte pellet was suspended in 1 mL of RBC buffer (10 mM NaH2PO4, 150 mM NaCl, 1 mM MgCl2, pH 7.4) to form the erythrocyte stock suspension.
Compounds were prepared as >15 mM stock solutions in DMSO and serially diluted to the following concentrations with DMSO: 7689, 5126, 2563, 2050, 1538, 1025, 769, 513, 384, 256, 205, 154, 103, 77, 51, 26 μM. To a 0.2 mL PCR tube, 24 μL of RBC buffer and 1 μL of compound stock solution were added, which gave final concentrations of […]. Positive and negative controls were prepared by adding 1 μL of DMSO to MilliQ water or RBC buffer, respectively to 0.2 mL PCR tube. To each PCR tube, 0.63 μL of the erythrocyte stock suspension was added and mixed by inversion. The samples were incubated at 37° C. for 2 hours. The samples were mixed by inversion and centrifuged at 10,000 g for 2 minutes. 15 μL of the supernatant from each sample was added to a 384-well place. Absorbances were read at 540 nm using a Biotek H1 Synergy Hybrid Reader (Wanooski, Vt.). Experiments were performed in triplicate and the reported MHC represents an average of three experiments.

A. fumigatus 1163 = assay: MIC; type: cell-based
C. tropicalis = assay: MIC; type: cell-based
C. albicans SN250 = assay: MIC; type: cell-based, Candida albicans
C. glabrata = assay: MIC; type: cell-based
A. fumigatus 1100 = assay: MIC; type: cell-based
C. albicans [1] = assay: MIC; type: cell-based
A. fumigatus 91 = assay: MIC; type: cell-based
[2] = UV-Vis sterol binding assay
Experimental: However, an alternative method was developed for reproducible formation of homogenous AmB and C2′epiAmB sterol sponge aggregates in vitro. Using these preparations, a quantitative UV-Vis and Principle Component (PCA) based assay for determining the apparent KDs for the binding of AmB and C2′epiAmB to ergosterol and cholesterol (FIGS. 5A-5D) was developed.
UV-Vis Binding Assay (FIG. 21A): The protocol for the sterol binding assay (UV-Vis) was developed in our lab. Compounds were dissolved in DMSO at a final concentration of 1 mM. Sterol were first dissolved in CHCl3 (>200 mM) and then diluted to 1 mM concentration with DMSO. To synthesize the complex 1 ul of compound solution was taken in a clean eppendorf tube (2 ml) and sterol solution (volume depends on the stoichiometry) was added to it and the volume was made up to 20 ul with DMSO. 0.98 ml of PBS buffer was added to the Eppendorf tube and mixed properly. The absorbance of the solution was measured after 30 mins of incubation.

C. krusei = assay: MIC; type: cell-based
[3] = system: C. albicans SN250, C. albicans, C. krusei, C. glabrata, C. tropicalis, A. fumigatus 91, 1163, 1100; assay: Average MIC over the tested strains; type: cell-based; conditions: for MIC: average over the 8 listed strains; for Average MIC for AmB analogue: value of the corresponding AmB analogue, not of the C2’epi compound
[4] = isothermal titration calorimetry (ITC) sterol binding; conditions: for Cholesterol binding by ITC: within the detection limits of ITC
From the text: (§1) This key discovery opened a path to the rational development of a non-toxic AmB variant. To probe its predicted role in sterol binding, the hydroxyl group was synthetically deleted at the C2′ position on the mycosamine appendage. […] Consistent with the sterol sponge model, this derivative retained good activity against yeast but, most importantly, was nontoxic to human red blood cells and primary (hREC) (FIG. 2B).
(§2) A practical 11-step synthesis of C2′epiAmB using a frontier site-selective acylation method was developed (FIG. 4). Wilcock, B. C. et al., Nat Chem 2012, 4 (12), 996-1003; Uno, B. E. A synthesis enabled understanding of Amphotericin B leading to derivatives with improved therapeutic indices. University of Illinois at Urbana-Champaign, 2014. The sterol binding and cell killing activities was then determined.

[5] = system: human red blood cells and primary hREC; assay: Toxicity to human cells; type: cell-based
From the text: as §1, §2

rats = assay: IV toxicity in rats (BUN, ALT/AST, mortality, Cmax); type: in vivo; conditions: IV 2, 10, and 17.5 mg/kg (the highest dose tested)
Experimental: >100 mg of C2′epiAmB was prepared, formulated it as the corresponding deoxycholate complex, and evaluated this derivative head-to-head with AmB-deoxycholate for toxicity and efficacy in animal models.

C. albicans [6] = assay: Murine model of invasive candidiasis, neutropenic ICR/Swiss mice; type: in vivo; conditions: single IP injection, deoxycholate complex, 16 mg/kg dose
From the text: Andes, D. et al., Antimicrobial agents and chemotherapy 2001, 45 (3), 922-6. In fact, the PD parameter that best correlates with outcome is Cmax-/MIC. The same was subsequently observed in a pulmonary model of invasive aspergillosis. Wiederhold, N. P. et al., Antimicrobial agents and chemotherapy 2006, 50 (2), 469-73.

[7] = system: A. fumigatus (AF293, A1163, ATC204305, AF91); type: cell-based
[8] = system: 40 Aspergillus clinical isolates, including azole-resistant A. fumigatus, A. flavus, and A. terreus; assay: Antifungal testing against 40 Aspergillus clinical isolates (Fungus Testing Laboratory); type: cell-based
CYP2D6 = CYP2D6 (Homo sapiens, UniProt P10635); assay: CYP Inhibition; conditions: human
Experimental: (§3) The working solutions of the test compounds and the standard inhibitors were prepared in DMSO (100× final concentration). 20 ul of substrate solution (5 in 1 cocktail) was added to the wells followed by 2 ul test compound solution was added. 158 ul of human liver microsome (HLM) was added to all the wells of the incubated plate and warmed to 37° C. for 10 mins. 20 ul of NADPH cofactor solution was then added to all the wells of incubated plate and incubated at 37° C. for 10 mins. At the time point the reaction was quenched by adding 400 uL of cold stop solution. The samples were centrifuged at 4000 rpm for 20 mins to precipitate protein. 100 ul supernatant was diluted with 100 ul of ultra pure water and analyzed using LCMS.

CYP2C9 = CYP2C9 (Homo sapiens, UniProt P11712); assay: CYP Inhibition; conditions: human
Experimental: as §3

CYP2D6, sequence (P10635 whole entry): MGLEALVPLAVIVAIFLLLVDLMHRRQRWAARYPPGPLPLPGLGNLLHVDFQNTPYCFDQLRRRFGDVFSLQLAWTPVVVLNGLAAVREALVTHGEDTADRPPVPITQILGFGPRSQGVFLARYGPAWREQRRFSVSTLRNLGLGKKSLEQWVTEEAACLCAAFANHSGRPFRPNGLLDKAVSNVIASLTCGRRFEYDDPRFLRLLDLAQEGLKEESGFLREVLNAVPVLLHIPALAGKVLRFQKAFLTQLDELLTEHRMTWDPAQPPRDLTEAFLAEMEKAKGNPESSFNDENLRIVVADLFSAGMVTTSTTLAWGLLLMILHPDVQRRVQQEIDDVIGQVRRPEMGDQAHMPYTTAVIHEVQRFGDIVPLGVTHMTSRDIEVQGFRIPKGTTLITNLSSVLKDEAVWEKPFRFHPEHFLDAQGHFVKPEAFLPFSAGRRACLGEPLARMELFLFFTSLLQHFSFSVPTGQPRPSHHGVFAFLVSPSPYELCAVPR
CYP2C9, sequence (P11712 whole entry): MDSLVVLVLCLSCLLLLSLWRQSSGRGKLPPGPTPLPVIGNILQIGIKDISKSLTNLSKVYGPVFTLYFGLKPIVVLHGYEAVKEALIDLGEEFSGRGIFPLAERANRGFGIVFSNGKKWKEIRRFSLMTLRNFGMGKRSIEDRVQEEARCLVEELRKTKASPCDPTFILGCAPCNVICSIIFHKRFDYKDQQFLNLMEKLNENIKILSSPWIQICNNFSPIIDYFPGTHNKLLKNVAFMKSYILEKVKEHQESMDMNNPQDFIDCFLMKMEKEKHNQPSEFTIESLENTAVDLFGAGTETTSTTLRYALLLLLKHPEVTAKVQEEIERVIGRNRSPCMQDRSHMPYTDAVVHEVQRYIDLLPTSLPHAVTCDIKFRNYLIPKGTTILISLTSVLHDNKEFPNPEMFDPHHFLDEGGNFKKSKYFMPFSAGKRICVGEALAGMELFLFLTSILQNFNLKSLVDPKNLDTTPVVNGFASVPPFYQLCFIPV

| Compound | MHC (human erythrocytes) [µM] | MIC A. fumigatus 1163 (A. fumigatus 1163) [µM] | MIC C. tropicalis (C. tropicalis) [µM] | MIC C. albicans SN250 (C. albicans SN250) [µM] | MIC C. glabrata (C. glabrata) [µM] | MIC A. fumigatus 1100 (A. fumigatus 1100) [µM] | MIC C. albicans (C. albicans [1]) [µM] | MIC A. fumigatus 91 (A. fumigatus 91) [µM] | Cholesterol Binding [2] | MIC C. krusei (C. krusei) [µM] | MIC [3] [µM] | Average MIC for AmB analogue [3] [μM] | Ergosterol binding by ITC [4] | Cholesterol binding by ITC [4] | Toxicity to human cells [5] | further results |
| --- | --- | --- | --- | --- | --- | --- | --- | --- | --- | --- | --- | --- | --- | --- | --- | --- |
| CNC(=O)C1C(O)CC2(O)CC(O)CC(O)C(O)CCC(O)CC(O)CC(=O)OC(C)C(C)C(O)C(C)C=CC=CC=CC=CC=CC=CC=CC(OC3OC(C)C(O)C(N)C3O)CC1O2 (centres unmarked) [BB] | >500 | 4 (≈ 3.75 µg/mL) | 0.5 (≈ 0.469 µg/mL) | 0.5 (≈ 0.469 µg/mL) | 0.375 (≈ 0.351 µg/mL) | 2 (≈ 1.87 µg/mL) | 0.5 (≈ 0.469 µg/mL) | 4 (≈ 3.75 µg/mL) | No | 2 (≈ 1.87 µg/mL) | 1.734 | 0.336 |  |  |  |  |
| CC1C=CC=CC=CC=CC=CC=CC=CC(OC2OC(C)C(O)C(N)C2O)CC2OC(O)(CC(O)CC(O)C(O)CCC(O)CC(O)CC(=O)OC(C)C(C)C1O)CC(O)C2C(=O)NCCN (centres unmarked) [BC] | 250 | 2 (≈ 1.93 µg/mL) | 0.5 (≈ 0.483 µg/mL) | 0.5 (≈ 0.483 µg/mL) | 0.5 (≈ 0.483 µg/mL) | 2 (≈ 1.93 µg/mL) | 0.5 (≈ 0.483 µg/mL) | 4 (≈ 3.86 µg/mL) | Yes? | 4 (≈ 3.86 µg/mL) | 1.750 | 0.563 |  |  |  |  |
| CC1C=CC=CC=CC=CC=CC=CC=CC(OC2CC(N)C(O)C(C)O2)CC2OC(O)(CC(O)CC(O)C(O)CCC(O)CC(O)CC(=O)OC(C)C(C)C1O)CC(O)C2C(=O)O (centres unmarked) [C2′deOAmB, reference compound] |  |  |  |  |  |  |  |  |  |  |  |  | bind ergosterol | not cholesterol | nontoxic |  |
| C[C@@H]1[C@H](O)[C@@H](C)/C=C/C=C/C=C/C=C/C=C/C=C/C=C/[C@H](O[C@@H]2O[C@H](C)[C@@H](O)[C@H](N)[C@H]2O)C[C@@H]2O[C@](O)(C[C@@H](O)C[C@@H](O)[C@H](O)CC[C@@H](O)C[C@@H](O)CC(=O)O[C@H]1C)C[C@H](O)[C@H]2C(=O)O [C2′epiAmB, C2′epi-Amphotericin B] | >500 |  |  | 0.5 (≈ 0.462 µg/mL) |  |  |  |  | No |  | >6.844 |  | bind ergosterol | not (detectably) cholesterol | not human cells | BUN, ALT/AST and mortality, rats (rats): no elevations in BUN or ALT/AST and no mortality; Fungal burden, murine invasive candidiasis (C. albicans [6]): outstanding reductions in fungal burden; Times less potent than AmB [7]: > 32 times; Times less potent than AmB [8]: 2-16 times; Average MIC ([3]; Table 13, C16 amides of C2’epiAmB): 9030 µM |
| C=C[C@H]1C[N@@]2CC[C@H]1C[C@@H]2[C@@H](O)c1ccnc2ccc(OC)cc12 [Quinidine, reference compound] |  |  |  |  |  |  |  |  |  |  |  |  |  |  |  | inhibition at 10 min, 3 µM (CYP2D6): 95.3% |
| Nc1ccc(S(=O)(=O)Nc2ccnn2-c2ccccc2)cc1 [Sulfaphenazole, reference compound] |  |  |  |  |  |  |  |  |  |  |  |  |  |  |  | inhibition at 10 min, 3 µM (CYP2C9): 69.7% |
